Reference: US11207299B2, “Biphenyl sulfonamide compounds for the treatment of type IV collagen diseases” (Travere Therapeutics, Inc., priority 2018, dated 2021)
“Also recorded” adds a separate entry of the source. Marks after values point to notes of the source that are not given here.

How the values were obtained:
[1] = test system: autosomal Alport mice (COL4A3^−/−); experiment: Late intervention study in Alport mice (treated from 5-7 weeks of age); format: in vivo, mouse
From the text: (§1) Vehicle or sparsentan was given daily by oral gavage to autosomal Alport mice (COL4A3^−/−) on the 129/Sv background (male and female) in five separate studies: a pilot study, an early intervention study (treated from 3-7 weeks of age), a late intervention study (treated from 5-7 weeks of age after the onset of glomerular (GM) changes), a lifespan study, and a hearing study (FIG. 1). The early intervention, late intervention, lifespan, and hearing studies also included mice treated with a comparator, losartan, which was given orally at 3-4 weeks of age in the early intervention study, in drinking water at 4-7 weeks of age in the early intervention study, and in drinking water at 5-7 weeks in the late intervention study.
(§2) Efficacy renal endpoints included blood urea nitrogen (BUN), proteinuria (urine protein to creatinine ratio, or UP/C), glomerulosclerosis, tubulointerstitial fibrosis, leucocyte infiltration, and glomerular basement morphology (GBM) using transmission electron microscopy (TEM). Endpoints in the inner ear included auditory brain stem response (ABR) threshold as a measure of noise-induced hearing loss, strial capillary basement membrane thickness, and inner ear pathology by TEM.
In the late intervention study, wild-type or Alport mice (8 mice per group) were dosed for 14 days according to the same methods used in the early intervention study but beginning at 5 weeks of age, i.e., dosed with vehicle, 120 mg/kg of sparsentan, or 10 mg/kg losartan starting at 5 weeks of age for 14 days. In this study, untreated Alport mice at 5 weeks of age were also used as baseline controls.
(§3) For the pilot, early intervention, late intervention, and lifespan studies, spot urine was sampled pre-study and weekly during treatment and analyzed for protein (UP) and creatinine (C) to determine proteinuria (UP/C). At the end of each study the animals were euthanized, blood samples were taken, BUN was measured from serum, and kidneys were harvested for structural and immuno-fluorescent measurements. Glomerulosclerosis was assessed by immunofluorescence (IF) using an antibody to fibronectin (FN). Visual counting of the number of sclerotic glomeruli as a proportion of the total number of glomeruli per slide was used to calculate the percentage of sclerotic glomeruli. Sections were co-stained with an anti-CD45 antibody to indicate leucocyte infiltration. Tubulointerstitial fibrosis was determined by IF of kidney sections using an antibody to collagen 1 (COL1). Tubulointerstitial fibrosis (TIF) scoring was conducted by visual assessment of the COL1 positive area as a percentage of the total cortical area and was performed blinded. The fibrosis scoring (“Fibrosis Score”) was categorized according to visual judgment of percentage of total cortical area, as: 0=<5%, 1=5-10%, 2=10-25%, 3=25-50%, 4=50-75%, or 5=75-100%. Ultrastructural changes in GBM and podocyte morphology were observed using transmission electron microscopy (TEM).
For a baseline comparison for late intervention, glomerulosclerosis and fibrosis were determined in kidney samples taken from 5-week-old untreated Alport mice.

[2] = test system: autosomal Alport mice (COL4A3^−/−); experiment: Early intervention study in Alport mice (treated from 3-7 weeks of age); format: in vivo, mouse
From the text: as §1, §2
In the early intervention study, wild-type and Alport mice were dosed daily by oral gavage with vehicle or sparsentan at 120 mg/kg from 3 to 7 weeks of age (7-8 mice per group), or with losartan at 20 mg/kg by oral gavage from 3-4 weeks of age (during weaning) and 10 mg/kg in drinking water from 4-7 weeks of age.
as §3

[3] = test system: laminin α2 in stria of Alport mice; experiment: Immunofluorescence of laminin α2 in stria of Alport mice; format: in vivo, mouse; details: losartan-treated Alport mice (10 mg/kg), early intervention study
Description: In the pilot study, designed to determine an optimal efficacious dose of sparsentan, Alport mice (3-4 per group) were dosed with vehicle (0.5% methylcellulose 4000 cps/0.25% Tween® 80 in distilled water) or sparsentan at 60 mg/kg or 200 mg/kg from 3 to 7 weeks of age for 28 days. Although 200 mg/kg sparsentan was efficacious in the pilot study, BUN levels were higher than those of Alport mice dosed with 60 mg/kg sparsentan (Table 1; FIG. 2A; FIG. 2B). This observation led to the selection of a 120 mg/kg dose of sparsentan to take forward into the early intervention study. During the pilot study, blood pressure (BP) was measured weekly using the CODA2 tail cuff system. […]
For the hearing study, wild-type or Alport mice were treated according to daily from 3-8.5 weeks of age by oral gavage with vehicle (0.5% methylcellulose 4000 cps/0.25% Tween® 80 in distilled water) or 120 mg/kg sparsentan or losartan at 20 mg/kg by oral gavage from 3-4 weeks of age (during weaning) and 10 mg/kg in drinking water from 4-7 weeks of age (n=5). The progression of Alport disease was assessed at 7 weeks of age by the amount of proteinuria (via urinalysis reagent strips—data not shown). […] Hearing ability and sensitivity to noise were assessed between 7 and 8 weeks of age by Auditory Brainstem Response (ABR), pre-noise exposure. […]

[4] = test system: autosomal Alport mice (COL4A3^−/−); experiment: Hearing study in Alport mice (ABR, noise exposure, strial capillary basement membrane TEM); format: in vivo, mouse
From the text: as §1, §2
For the hearing study, wild-type or Alport mice were treated according to daily from 3-8.5 weeks of age by oral gavage with vehicle (0.5% methylcellulose 4000 cps/0.25% Tween® 80 in distilled water) or 120 mg/kg sparsentan or losartan at 20 mg/kg by oral gavage from 3-4 weeks of age (during weaning) and 10 mg/kg in drinking water from 4-7 weeks of age (n=5). The progression of Alport disease was assessed at 7 weeks of age by the amount of proteinuria (via urinalysis reagent strips—data not shown). Strial capillary basement membrane (SCBM) width was analyzed by transmission electron microscopy (TEM), and accumulation of extracellular matrix (ECM) in SCBM was determined by immunofluorescence (IF) microscopy using an antibody to laminin α2. Hearing ability and sensitivity to noise were assessed between 7 and 8 weeks of age by Auditory Brainstem Response (ABR), pre-noise exposure. A subset of each treatment group was then exposed to a metabolic noise stress for 10 hours. Mice receiving the noise treatment were randomly selected for overstimulation with a 106 dB sound pressure level (SPL), narrow band noise (8-16 kHz) for 10 hours, usually 10 PM to 8 AM. The noise exposure was conducted in a sound-isolation booth. A speaker was suspended from the ceiling. Wire cages with individual compartments were located midway between the floor and speaker. Mice were hydrated prior to placement in the cage and were provided free access to food. The noise exposure occurred at 8 weeks of age. The amount of hearing loss caused by the metabolic noise exposure was determined 5 days post-exposure.

[5] = test system: autosomal Alport mice (COL4A3^−/−); experiment: Lifespan study in Alport mice; format: in vivo, mouse; details: dosing as in early intervention study, continued until 10% loss of peak body weight; P<0.05
From the text: as §1
In the lifespan study, Alport mice (n=10) were dosed using the same methodology as in the early intervention study, except that dosing was continued until mice had lost 10% of their peak body weight, after which they were euthanized.
For the pilot, early intervention, late intervention, and lifespan studies, spot urine was sampled pre-study and weekly during treatment and analyzed for protein (UP) and creatinine (C) to determine proteinuria (UP/C). At the end of each study the animals were euthanized, blood samples were taken, BUN was measured from serum, and kidneys were harvested for structural and immuno-fluorescent measurements. Glomerulosclerosis was assessed by immunofluorescence (IF) using an antibody to fibronectin (FN). Visual counting of the number of sclerotic glomeruli as a proportion of the total number of glomeruli per slide was used to calculate the percentage of sclerotic glomeruli. Sections were co-stained with an anti-CD45 antibody to indicate leucocyte infiltration. Tubulointerstitial fibrosis was determined by IF of kidney sections using an antibody to collagen 1 (COL1). Tubulointerstitial fibrosis (TIF) scoring was conducted by visual assessment of the COL1 positive area as a percentage of the total cortical area and was performed blinded. […]

[6] = test system: murine models of Alport syndrome; details: cited from earlier work; for Glomerulosclerosis and interstitial fibrosis in murine models of Alport syndrome: literature (Dufek et al. 2016; Gross et al. 2003)
[7] = Alport mice late intervention, losartan 10 mg/kg, mean ± SD
[8] = Alport mice, losartan 20/10 mg/kg, at 7 wk of age, mean ± SD

CCCCc1nc(Cl)c(CO)n1Cc1ccc(-c2ccccc2-c2nnn[nH]2)cc1 [losartan, Losartan, reference compound]
UP/C ([1]; Alport mice late intervention, losartan 10 mg/kg for 14 days from 5 wk of age, mean ± SD, n = 8): 18.1 ± 4.6 mg/mg
BUN [1, 7]: 15.5 ± 3.4 mg/dL
GS (% Sclerotic glomeruli) [1, 7]: 16.0 ± 11.9*^$ %
TIF ([1]; Alport mice late intervention, losartan 10 mg/kg, tubulointerstitial fibrosis score, mean ± SD): 1.0 ± 1.2
UP/C and fibrosis vs. vehicle-treated Alport mice ([1]; losartan 10 mg/kg, late intervention): not significant
Attenuation of BUN and glomerulosclerosis vs. vehicle-treated Alport mice ([1]; losartan 10 mg/kg, late intervention, P<0.05): significant
Development of fibrosis, CD45^+ leucocyte infiltration, and glomerulosclerosis ([1]; sparsentan 120 mg/kg or losartan 10 mg/kg, 5-7 weeks of age): attenuated; also recorded: prevented
UP/C ([2]; Alport mice, losartan 20/10 mg/kg from 3 wk, at 4 wk of age, mean ± SD, n = 8): 0.6 ± 1.3 mg/mg
UP/C ([2]; Alport mice, losartan 20/10 mg/kg, at 5 wk of age, mean ± SD): 6.7 ± 4.0 mg/mg
UP/C ([2]; Alport mice, losartan 20/10 mg/kg, at 6 wk of age, mean ± SD): 11.2 ± 5.7 mg/mg
BUN [2, 8]: 18.2 ± 3.5 mg/dL
Sclerotic Glomeruli (%) [2, 8]: 1.7 ± 3.3 %
UP/C [2, 8]: 11.5 ± 7.0 mg/mg
Fibrosis Score ([2]; Alport mice, losartan 20/10 mg/kg, at 7 wk, score 0=<5% to 5=75-100% COL1 area, mean ± SD): 0.0 ± 0.0
Development of nephropathy in Alport mice ([2]; sparsentan 120 mg/kg 28 days or losartan 20 mg/kg 7 days then 10 mg/kg 21 days, from 3 weeks of age): prevented
UP/C, BUN, glomerulosclerosis, and fibrosis vs. vehicle-treated Alport mice ([2]; sparsentan 120 mg/kg or losartan 20/10 mg/kg from 3 weeks of age, P<0.05): significant attenuation
TIF or glomerulosclerosis ([2]; sparsentan- or losartan-treated Alport mice, early intervention): little to no
Accumulation of laminin α2 in stria [3]: did not appear different from vehicle-treated Alport mice
Hearing ability before noise exposure (ABR) ([4]; 7-8-week-old mice, sparsentan 120 mg/kg or losartan 20/10 mg/kg): did not differ significantly
Increase in strial capillary basement membrane width observed in vehicle-treated Alport mice ([4]; Alport mice treated 3-8.5 weeks of age with sparsentan or losartan): prevented
mean SCBM width±SD ([4]; Alport mice, losartan 20/10 mg/kg from 3 weeks of age, TEM, n=5): 55.0±5.9 nm
Hearing loss after noise exposure vs vehicle-treated Alport mice ([4]; any frequency tested, losartan 20/10 mg/kg): no significant effect; also recorded: no significant difference
Stria vascularis pathology by TEM ([4]; treated Alport mice, FIGS. 14-23): variable pathology
Lifespan compared to vehicle-treated Alport mice [5]: significantly longer; also recorded: significantly greater

CCOC(=O)[C@H](CCc1ccccc1)N[C@@H](C)C(=O)N1[C@H](C(=O)O)C[C@@H]2CCC[C@@H]21 [ramipril]
Glomerulosclerosis and interstitial fibrosis in murine models of Alport syndrome [6]: ameliorate

Cc1cc2c(cc1CC(=O)c1sccc1S(=O)(=O)Nc1onc(C)c1Cl)OCO2 [sitaxentan]
Glomerulosclerosis and interstitial fibrosis in murine models of Alport syndrome [6]: ameliorate
Basement membrane in the cochlea of the ear in Alport mice ([6]; literature (Meehan et al. 2016)): protect
